Reference: patent US12624004B2 (Fudan University, priority 2019, dated 2026)
Structures can show the parent of a compound that is named as a salt. Where two headings read alike, the source gives them in different places.

What was measured:
δ opioid receptor = biological target: T1, δ opioid receptor (Homo sapiens, UniProt P41143); test: Competition binding assay on membranes of CHO cells expressing δ opioid receptor, [3H]-labeled ligand; conditions: for Ki: read-out: δOR Ki
T1 construct: expressed in transfected cells; host or cells: CHO cells (membranes)
How it was run: (§1)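 CHO membranes (20–30 μg protein) incubated with [3H]-labeled ligand at 1–2 nM and test compounds, 30 min at 30° C; nonspecific binding with 1 μM corresponding ligand. Filtered on GF/C, washed with 50 mM Tris-HCl pH 7.4, scintillation-counted. IC50 converted to Ki by Ki=IC50/(1+[L]/Kd).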

Female mice = test: In vivo hot plate method analgesia test; conditions: intraperitoneal; for Maximum percentage effective analgesia (% MPE): Table 5-2, hot plate 55° C.; for Maximum percentage effective analgesia (% MPE) / % MPE @ 10 mg/kg: 10 mg/kg dose; for % MPE (5 mg/kg): Table 2-2, hot plate 55° C.; for % MPE @ 10 mg/kg: Table 3-2, hot plate 55° C.
How it was run: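 Female mice (~20 g) on a 55° C hot plate, hindpaw response latency as pain threshold (pre-screen 5–30 s, 60 s cut-off). Latencies at 15, 30, 60 and 120 min after intraperitoneal dosing. %MPE = (post−pre latency)/(60−pre)×100, ED50 derived from %MPE.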

μ opioid receptor = biological target: T2, μ opioid receptor (Homo sapiens, UniProt P35372); test: Competition binding assay on membranes of CHO cells expressing μ opioid receptor, [3H]-labeled ligand; conditions: for Ki: read-out: μOR Ki
T2 construct: expressed in transfected cells; host or cells: CHO cells (membranes)
How it was run: as §1

κ opioid receptor = biological target: T3, κ opioid receptor (Homo sapiens, UniProt P41145); test: Competition binding assay on membranes of CHO cells expressing κ opioid receptor, [3H]-labeled ligand; conditions: for Ki: read-out: κOR Ki
T3 construct: expressed in transfected cells; host or cells: CHO cells (membranes)
How it was run: as §1

[1] = 0.5 h, Table 2-1, 1 μM concentration of compound, read-out: δOR Binding rate (%)
[2] = 0.5 h, Table 2-1, 1 μM concentration of compound, read-out: κOR Binding rate (%)
[3] = 0.5 h, Table 3-1, 1 μM concentration of compounds, read-out: δOR Binding rate (%)
[4] = Table 3-1, 1 μM concentration of compounds, read-out: μOR Binding rate (%)
[5] = 0.5 h, Table 3-1, 1 μM concentration of compounds, read-out: κOR Binding rate (%)
[6] = 0.5 h, Table 5-1, 1 μM concentration of compound, read-out: μOR Combination rate (%)
[7] = 0.5 h, Table 5-1, 1 μM concentration of compound, read-out: δOR Combination rate (%)

COc1cccc(C2(O)CCN(C(=O)Cc3ccc(Cl)c(Cl)c3)CC2CN(C)C)c1.Cl (centres unmarked) [FWBE17, 2-(3,4-Dichlorophenyl)-1-(3-((dimethylamino)methyl)-4-hydroxy-4-(3-methoxyphenyl)piperidin-1-yl)ethyl-1-one hydrochloride]
Ki (δ opioid receptor; Table 5-1): 805 ± 173 nM
Maximum percentage effective analgesia (% MPE) (Female mice): 70.66%
Ki (μ opioid receptor; Table 5-1): 69.2 ± 0.4 nM
Ki (κ opioid receptor; Table 5-1): 288 ± 12.8 nM

COc1cccc(C2(O)CCN(C(=O)C(C)(C)c3ccccc3)CC2CN(C)C)c1.Cl (centres unmarked) [FWBE23, 1-(3-((Dimethylamino)methyl)-4-hydroxy-4-(3-methoxyphenyl)piperidin-1-yl)-2-methyl-2-phenylpropan-1-one hydrochloride]
Ki (δ opioid receptor; Table 5-1): 688 ± 540 nM
Maximum percentage effective analgesia (% MPE) (Female mice): 33.72%
Ki (μ opioid receptor; Table 5-1): 52.6 ± 3.83 nM
Ki (κ opioid receptor; Table 5-1): 44.4 ± 0.96 nM

COc1cccc(C2(O)CCN(C(=O)Cc3ccc4ccccc4c3)CC2CN(C)C)c1.Cl (centres unmarked) [FWBE15, 1-(3-((Dimethylamino)methyl)-4-hydroxy-4-(3-methoxyphenyl)piperidin-1-yl)-2-(naphthalen-2-yl)ethyl-1-one hydrochloride]
Ki (δ opioid receptor; Table 5-1): > 10000 nM
Maximum percentage effective analgesia (% MPE) (Female mice): 0%
Ki (μ opioid receptor; Table 5-1): 81.6 ± 1 nM
Ki (κ opioid receptor; Table 5-1): 2651 ± 3.5 nM

CCCS(=O)(=O)N1CCC(O)(c2cccc(OC)c2)C(CN(C)C)C1.Cl (centres unmarked) [FWBH19, 3-((Dimethylamino)methyl)-4-(3-methoxyphenyl)-1-(propylsulfonyl)piperidin-4-ol hydrochloride]
inhibition at 1 µM (δ opioid receptor; [1]): 17.5 ± 4.38%
% MPE (5 mg/kg) (Female mice; 5 mg/kg dose): 17.04%
Ki (μ opioid receptor; Table 2-1): 133 ± 3.1 nM
inhibition at 1 µM (κ opioid receptor; [2]): 19.1 ± 10.3%

COc1cccc(C2(O)CCN(C(=O)NC34CC5CC(CC(O)(C5)C3)C4)CC2CN(C)C)c1.Cl [FWBF16, 3-((dimethylamino)methyl)-4-hydroxy-N-((1R,3S,5R,7S)-3-hydroxyadamantan-1-yl)-4-(3-methoxyphenyl)piperidine-1-carboxamide hydrochloride]
inhibition at 1 µM (δ opioid receptor; [3]): 1.9%
% MPE @ 10 mg/kg (Female mice): 16.07%
inhibition at 1 µM (μ opioid receptor; [4]): 0%
inhibition at 1 µM (κ opioid receptor; [5]): 0%

COc1cccc(C2(O)CCN(C(=O)Nc3ccccc3)CC2CN(C)C)c1.Cl (centres unmarked) [FWBF1, 3-((Dimethylamino)methyl)-4-hydroxy-4-(3-methoxyphenyl)-N-phenylpiperidine-1-carboxamide hydrochloride]
Ki (δ opioid receptor; Table 3-1): 849 ± 96.6 nM
ED50 (Female mice; Mus musculus, ip, Table 3-2, hot plate): 2.75 mg/kg
Ki (μ opioid receptor; Table 3-1): 7.3 ± 0.5 nM
Ki (κ opioid receptor; Table 3-1): 49.1 ± 6.9 nM

COc1cccc(C2(O)CCN(S(=O)(=O)C[C@]34CC[C@H](CC3=O)C4(C)C)CC2CN(C)C)c1 (stereo partly drawn) [FWBH25, (1S,4R)-1-(((3-((Dimethylamino)methyl)-4-hydroxy-4-(3-methoxyphenyl)piperidin-1-yl)sulfonyl)methyl)-7,7-dimethylbicyclo[2.2.1]heptan-2-one hydrochloride]
inhibition at 1 µM (δ opioid receptor; [1]): 14.3 ± 8.63%
% MPE (5 mg/kg) (Female mice; 5 mg/kg dose): 6.03%
Ki (μ opioid receptor; Table 2-1): 50.8 ± 1.56 nM
Ki (κ opioid receptor; Table 2-1): 54 ± 20.9 nM

COc1cccc(C2(O)CCN(C(=O)Cc3cccc(C(F)(F)F)c3)CC2CN(C)C)c1.Cl (centres unmarked) [FWBE4, 1-(3-((Dimethylamino)methyl)-4-hydroxy-4-(3-methoxyphenyl)piperidin-1-yl)-2-(3-(trifluoromethyl)phenyl)ethyl-1-one hydrochloride]
Ki (δ opioid receptor; Table 5-1): > 10000 nM
Maximum percentage effective analgesia (% MPE) (Female mice): 69%
inhibition at 1 µM (μ opioid receptor; [6]): 37.8 ± 2.9%
Ki (κ opioid receptor; Table 5-1): 3030 ± 150 nM

COc1cccc(C2(O)CCN(C(=O)C3(c4ccccc4)CCCCC3)CC2CN(C)C)c1.Cl (centres unmarked) [FWBE27, (3-((Dimethylamino)methyl)-4-hydroxy-4-(3-methoxyphenyl)piperidin-1-yl)(1-phenylcyclohexyl) methanone hydrochloride]
inhibition at 1 µM (δ opioid receptor; [7]): 93.6 ± 1.08%
Maximum percentage effective analgesia (% MPE) (Female mice): 61.21%
Ki (μ opioid receptor; Table 5-1): 51.6 ± 2.24 nM
Ki (κ opioid receptor; Table 5-1): 30.7 ± 0.96 nM

COc1cccc(C2(O)CCN(C(=O)Nc3ccc(Cl)cc3)CC2CN(C)C)c1.Cl (centres unmarked) [FWBF4, N-(4-Chlorophenyl)-3-((dimethylamino)methyl)-4-hydroxy-4-(3-methoxyphenyl)piperidine-1-carboxamide hydrochloride]
inhibition at 1 µM (δ opioid receptor; [3]): 0%
% MPE @ 10 mg/kg (Female mice): 68.95%
inhibition at 1 µM (μ opioid receptor; [4]): 48.8 ± 3.9%
inhibition at 1 µM (κ opioid receptor; [5]): 22.1 ± 10.7%

COc1cccc(C2(O)CCN(S(=O)(=O)Cc3ccc(Cl)cc3)CC2CN(C)C)c1.Cl (centres unmarked) [FWBH11, 1-((4-Chlorobenzyl)sulfonyl)-3-((dimethylamino)methyl)-4-(3-methoxyphenyl)piperidin-4-ol hydrochloride]
inhibition at 1 µM (δ opioid receptor; [1]): 50.9 ± 1.58%
% MPE (5 mg/kg) (Female mice; 5 mg/kg dose): 55.49%
Ki (μ opioid receptor; Table 2-1): 711.7 ± 3.65 nM
inhibition at 1 µM (κ opioid receptor; [2]): 36.6 ± 3.32%

COc1cccc(C2(O)CCN(C(=O)Nc3cc(C(F)(F)F)cc(C(F)(F)F)c3)CC2CN(C)C)c1.Cl (centres unmarked) [FWBF10, N-(3,5-Bis(trifluoromethyl)phenyl)-3-((dimethylamino)methyl)-4-hydroxy-4-(3-methoxyphenyl) piperidine-1-carboxamide hydrochloride]
inhibition at 1 µM (δ opioid receptor; [3]): 0.9%
% MPE @ 10 mg/kg (Female mice): 7.74%
inhibition at 1 µM (μ opioid receptor; [4]): 0%
inhibition at 1 µM (κ opioid receptor; [5]): 8.6 ± 4.8%

COc1cccc(C2(O)CCN(C(=O)Cc3ccc(Cl)cc3)CC2CN(C)C)c1.Cl (centres unmarked) [FWBE19, 2-(4-Chlorophenyl)-1-(3-((dimethylamino)methyl)-4-hydroxy-4-(3-methoxyphenyl)piperidin-1-yl)ethyl-1-one hydrochloride]
inhibition at 1 µM (δ opioid receptor; [7]): 0%
Maximum percentage effective analgesia (% MPE) (Female mice): 73.98%
inhibition at 1 µM (μ opioid receptor; [6]): 25.2 ± 5.2%
inhibition at 1 µM (κ opioid receptor; 0.5 h, Table 5-1, 1 μM concentration of compound, read-out: κOR Combination rate (%)): 39.4 ± 4.5%

COc1cccc(C2(O)CCC(N(C)S(=O)(=O)c3cccc(Cl)c3)CC2CN(C)C)c1.Cl (centres unmarked) [3-Chloro-N-(3-((dimethylamino)methyl)-4-hydroxy-4-(methoxyphenyl)cyclohexyl)-N-methylbenzenesulfonamide hydrochloride]
inhibition at 10 µM (δ opioid receptor; 0.5 h, Table 1-1, 10 μM concentration of compound, read-out: δOR Binding rate (%)): 13.8 ± 3%
Maximum percentage effective analgesic (% MPE) (Female mice; Table 1-2, hot plate 55° C., 5 mg/kg dose): 20.2%
inhibition at 10 µM (μ opioid receptor; Table 1-1, 10 μM concentration of compound, mean ± SD of three measurements, read-out: μOR Binding rate (%)): 90 ± 2%
inhibition at 10 µM (κ opioid receptor; 0.5 h, Table 1-1, 10 μM concentration of compound, read-out: κOR Binding rate (%)): 66.6 ± 4.8%

COc1cccc(C2(O)CCN(S(C)(=O)=O)CC2CN(C)C)c1.Cl (centres unmarked) [FWBH23, 3-((Dimethylamino)methyl)-4-(3-methoxyphenyl)-1-(methylsulfonyl)piperidin-4-ol hydrochloride]
inhibition at 1 µM (δ opioid receptor; [1]): 16 ± 1.99%
% MPE (5 mg/kg) (Female mice; 5 mg/kg dose): 16.87%
Ki (μ opioid receptor; Table 2-1): 192 ± 15 nM
inhibition at 1 µM (κ opioid receptor; [2]): 14.3 ± 3.33%

COC(=O)c1ccsc1NC(=O)N1CCC(O)(c2cccc(OC)c2)C(CN(C)C)C1 (centres unmarked) [FWBF18, Methyl 2-(3-((dimethylamino)methyl)-4-hydroxy-4-(3-methoxyphenyl)piperidine-1-carboxamide) thiophene-3-carboxylate hydrochloride]
inhibition at 1 µM (δ opioid receptor; [3]): 16 ± 12.4%
% MPE @ 10 mg/kg (Female mice): 22.76%
inhibition at 1 µM (μ opioid receptor; [4]): 2.3%
inhibition at 1 µM (κ opioid receptor; [5]): 9.2 ± 3.1%

COc1cccc(C2(O)CCN(S(=O)(=O)C(C)C)CC2CN(C)C)c1.Cl (centres unmarked) [FWBH20, 3-((Dimethylamino)methyl)-1-(isopropylsulfonyl)-4-(3-methoxyphenyl)piperidin-4-ol hydrochloride]
inhibition at 1 µM (δ opioid receptor; [1]): 20.8 ± 1.91%
% MPE (5 mg/kg) (Female mice; 5 mg/kg dose): 0%
Ki (μ opioid receptor; Table 2-1): 255 ± 5.3 nM
inhibition at 1 µM (κ opioid receptor; [2]): 6.88 ± 4.38%
